Measurements taken from patent US20030139431A1 (priority 2001, published 2003).

Experiments:
[1] = target: T1, hNPFF1 (Homo sapiens, UniProt Q9GZQ6); experiment: Binding affinity at cloned recombinant human NPFF1 receptor
T1 construct: expressed in transfected cells

[2] = target: T2, hNPFF2 (Homo sapiens, UniProt Q9Y5X5); experiment: Binding affinity at cloned recombinant human NPFF2 receptor
T2 construct: expressed in transfected cells

[3] = target: T3, rNPFF1 (Rattus norvegicus, UniProt Q9EP86); experiment: Binding affinity at cloned recombinant rat NPFF1 receptor
T3 construct: expressed in transfected cells

[4] = target: T4, rNPFF2 (Rattus norvegicus, UniProt Q9EQD2); experiment: Binding affinity at cloned recombinant rat NPFF2 receptor
T4 construct: expressed in transfected cells

[5] = target: T3, rNPFF1; experiment: Functional assay (agonist potency, intrinsic activity) at cloned rat NPFF1 receptor; assay type: cell-based; conditions: for rNPFF1 IA (intrinsic activity): percent of maximum response elicited by neuropeptide FF, rat NPFF1; for EC50: recombinant rat NPFF1
Procedure: (§1) Intrinsic activity of a compound is measured as the percent of maximum response.

[6] = target: T4, rNPFF2; experiment: Functional assay (agonist potency, intrinsic activity) at cloned rat NPFF2 receptor; assay type: cell-based; conditions: for rNPFF2 IA (intrinsic activity): percent of maximum response elicited by neuropeptide FF, rat NPFF2; for EC50: recombinant rat NPFF2
Procedure: as §1

T3 sequence (Q9EP86 whole entry): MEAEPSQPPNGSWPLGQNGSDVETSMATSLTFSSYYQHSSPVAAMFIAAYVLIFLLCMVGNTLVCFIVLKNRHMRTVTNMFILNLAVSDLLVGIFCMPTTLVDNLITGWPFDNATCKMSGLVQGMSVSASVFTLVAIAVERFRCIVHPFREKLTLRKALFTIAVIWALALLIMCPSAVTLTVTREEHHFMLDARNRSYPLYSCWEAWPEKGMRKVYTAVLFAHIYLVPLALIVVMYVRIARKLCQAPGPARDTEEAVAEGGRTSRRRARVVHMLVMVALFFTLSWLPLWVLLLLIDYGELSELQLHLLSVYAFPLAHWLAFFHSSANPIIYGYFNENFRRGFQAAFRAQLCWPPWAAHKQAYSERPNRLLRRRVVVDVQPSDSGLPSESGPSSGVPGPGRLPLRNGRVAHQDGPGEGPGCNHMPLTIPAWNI
T2 sequence (Q9Y5X5 103-522): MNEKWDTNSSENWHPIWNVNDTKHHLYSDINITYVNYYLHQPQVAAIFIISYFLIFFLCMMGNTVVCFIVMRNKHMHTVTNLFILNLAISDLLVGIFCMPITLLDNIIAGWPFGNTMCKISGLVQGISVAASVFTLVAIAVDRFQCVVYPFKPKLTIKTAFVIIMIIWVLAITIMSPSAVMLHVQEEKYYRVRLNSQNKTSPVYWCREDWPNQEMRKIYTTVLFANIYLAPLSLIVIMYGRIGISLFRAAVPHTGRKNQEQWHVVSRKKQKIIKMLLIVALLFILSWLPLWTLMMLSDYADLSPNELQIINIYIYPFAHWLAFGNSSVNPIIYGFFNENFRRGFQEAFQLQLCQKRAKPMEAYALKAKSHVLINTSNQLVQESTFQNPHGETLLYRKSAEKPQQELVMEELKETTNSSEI
T1 sequence (Q9GZQ6 whole entry): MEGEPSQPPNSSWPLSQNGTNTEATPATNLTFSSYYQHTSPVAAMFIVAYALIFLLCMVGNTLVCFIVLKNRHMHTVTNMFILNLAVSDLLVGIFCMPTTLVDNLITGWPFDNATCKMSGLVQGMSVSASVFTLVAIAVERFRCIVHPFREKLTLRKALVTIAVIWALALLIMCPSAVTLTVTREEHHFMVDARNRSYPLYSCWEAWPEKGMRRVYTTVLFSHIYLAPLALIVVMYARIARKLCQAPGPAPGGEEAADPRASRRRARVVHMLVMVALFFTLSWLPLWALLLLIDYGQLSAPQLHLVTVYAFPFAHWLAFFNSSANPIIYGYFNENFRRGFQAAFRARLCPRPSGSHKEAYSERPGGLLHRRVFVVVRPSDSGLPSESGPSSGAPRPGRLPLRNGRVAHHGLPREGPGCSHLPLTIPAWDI
T4 sequence (Q9EQD2 whole entry): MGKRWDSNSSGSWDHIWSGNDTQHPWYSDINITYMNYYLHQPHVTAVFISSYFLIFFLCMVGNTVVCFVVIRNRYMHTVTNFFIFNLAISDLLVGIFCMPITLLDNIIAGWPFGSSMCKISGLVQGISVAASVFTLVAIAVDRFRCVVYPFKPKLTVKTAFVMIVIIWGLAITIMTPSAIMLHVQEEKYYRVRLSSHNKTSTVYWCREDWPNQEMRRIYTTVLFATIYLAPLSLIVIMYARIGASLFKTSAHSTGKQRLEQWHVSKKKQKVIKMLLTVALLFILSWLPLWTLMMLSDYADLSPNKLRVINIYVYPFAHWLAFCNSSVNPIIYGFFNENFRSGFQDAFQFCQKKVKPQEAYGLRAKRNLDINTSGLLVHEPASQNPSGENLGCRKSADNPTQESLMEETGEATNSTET

Structure (SMILES) | Ki [1] [nM] | Ki [2] [nM] | Ki [3] [nM] | Ki [4] [nM] | rNPFF1 IA (intrinsic activity) [5] | EC50 [5] [nM] | rNPFF2 IA (intrinsic activity) [6] [% NPFF] | EC50 [6] [nM]
Cc1nc(NC(=N)N)nc2ccccc12 [Compound 1001, N-(4-methyl-2-quinazolinyl)guanidine] | 240 | 2040 | 202 | > 10000 | Inactive | > 10000 | 16 | 3080
Cc1cc(NC(=N)N)nc2ccc(-c3ccccc3)cc12 [Compound 4003, N-(4-methyl-6-phenyl-2-quinolinyl)guanidine] | 207 | 2120 | 176 | 1250 | Inactive | > 10000 | 26 | 3160
Cc1cc(NC(=N)N)nc2ccc3ccccc3c12 [Compound 4009, N-(1-methylbenzo[f]quinolin-3-yl)guanidine] | 144 | 826 | 153 | 871 | Inactive | > 10000 | 70 | 3160
Cc1nc(NC(=N)N)nc2ccc3ccccc3c12 [Compound 1007, N-(1-methylbenzo[f]quinazolin-3-yl)guanidine] | 53 | 260 | 146 | 699 | Inactive | > 10000 | 66 | 1300
COc1ccc2nc(NC(=N)N)cc(C)c2c1 [Compound 4004, N-(6-methoxy-4-methyl-2-quinolinyl)guanidine] | 113 | 1210 | 153 | 2580 | Inactive | > 10000 | 65 | 1530
CCCCc1ccc2nc(NC(=N)N)nc(C)c2c1 [Compound 2004, N-(6-butyl-4-methyl-2-quinazolinyl)guanidine] |  |  | 392 | 262 | 40% NPFF | 194 | 101 | 124
Cc1nc(NC(=N)N)nc2ccc(C(C)(C)C)cc12 [Compound 1004, N-(6-tert-butyl-4-methyl-2-quinazolinyl)guanidine] |  |  | 710 | 1490 | 36% NPFF | 1470 | 90 | 440
Cc1nc(NC(=N)N)nc2ccc(OCc3ccccc3)cc12 [Compound 1028, N-[6-(benzyloxy)-4-methyl-2-quinazolinyl]guanidine] |  |  | 386 | 817 | Inactive | > 10000 | 79 | 758
Cc1cc(C)c2c(C)cc(NC(=N)N)nc2c1 [Compound 4008, N-(4,5,7-trimethyl-2-quinolinyl)guanidine] | 82 | 514 | 64 | 882 | Inactive | > 10000 | 65 | 411
CCCCOc1ccc2nc(NC(=N)N)nc(C)c2c1 [Compound 1012, N-(6-butoxy-4-methyl-2-quinazolinyl)guanidine] |  |  | 733 | 4850 | Inactive | > 10000 | 80 | 1620
Cc1ccc2nc(NC(=N)N)cc(C)c2c1 [Compound 4001, N-(4,6-dimethyl-2-quinolinyl)guanidine] | 21 | 150 | 30 | 556 | Inactive | > 10000 | 68 | 404
CCCCCCc1ccc2nc(NC(=N)N)nc(C)c2c1 [Compound 2005, N-(6-hexyl-4-methyl-2-quinazolinyl)guanidine] |  |  | 88 | 268 | 56% NPFF | 137 | 81 | 105
Cc1nc(NC(=N)N)nc2ccc(Oc3ccccc3)cc12 [Compound 1032, N-(4-methyl-6-phenoxy-2-quinazolinyl)guanidine] |  |  | 291 | 1640 | 31% NPFF | 374 | 93 | 459
Cc1ccc2nc(NC(=N)N)nc(C)c2c1 [Compound 1002, N-(4,6-dimethyl-2-quinazolinyl)guanidine] |  |  | 134 | 3920 | Inactive | > 10000 | 24 | 5620
CCCCc1ccc2nc(NC(=N)N)cc(C)c2c1 [Compound 5001, N-(6-butyl-4-methyl-2-quinolinyl)guanidine] |  |  | 24 | 115 | 28% NPFF | 123 | 82 | 69
Cc1nc(NC(=N)N)nc2cc(OCc3ccccc3)ccc12 [Compound 1006, N-[7-(benzyloxy)-4-methyl-2-quinazolinyl]guanidine] |  |  | 410 | 1070 | 15% NPFF | > 10000 | 22 | 1080
CCc1ccc2nc(NC(=N)N)nc(C)c2c1 [Compound 1003, N-(6-ethyl-4-methyl-2-quinazolinyl)guanidine] |  |  | 238 | 1640 | Inactive | > 10000 | 83 | 392
Cc1nc(NC(=N)N)nc2ccc(CCCC(C)O)cc12 (centres unmarked) [Compound 1034, N-(6-[1-(4-hydroxyl-pentyl)]-4-methyl-2-quinazolino)guanidine] |  |  | 82 | 1540 | 63% NPFF | 610 | 101 | 394
Cc1nc(NC(=N)N)nc2cc(C(C)C)ccc12 [Compound 1021, N-(7-isopropyl-4-methyl-2-quinazolinyl)guanidine] |  |  | 56 | 881 | Inactive | > 10000 | 76 | 283
Cc1nc(NC(=N)N)nc2cc3c(cc12)C=CCC3 [Compound 1037, N-(4-methyl-8,9-dihydrobenzo[g]quinazolin-2-yl)guanidine] |  |  | 143 | 824 | Inactive | > 10000 | 71 | 3160
Cc1nc(NC(=N)N)nc2cc(OC(C)C)ccc12 [Compound 1025, N-[4-methyl-7-(isopropoxy)-2-quinazolinyl]guanidine] |  |  | 253 | 4530 | Inactive | > 10000 | 27 | 3160
Cc1nc(NC(=N)N)nc2ccc(Cl)cc12 [Compound 1013, N-(6-chloro-4-methyl-2-quinazolinyl)guanidine] |  |  | 332 | 2020 | Inactive | > 10000 | 52 | 690
